One may read the IC50 as the concentration that gives 50% inhibition.

In patent publication US8193349B2, “4-benzylamino-1-carboxylacyl-piperidine derivatives as CETP inhibitors” (Novartis AG, priority 2007, dated 2012) one finds IC50 data, which are given here for 10 molecules.

This assay has as its target T1, CETP (Homo sapiens, UniProt P11597).
T1 construct: tissue New Drug Development Research Center, Inc; host or cells: human EDTA plasma from healthy men
T1 sequence (P11597 18-493): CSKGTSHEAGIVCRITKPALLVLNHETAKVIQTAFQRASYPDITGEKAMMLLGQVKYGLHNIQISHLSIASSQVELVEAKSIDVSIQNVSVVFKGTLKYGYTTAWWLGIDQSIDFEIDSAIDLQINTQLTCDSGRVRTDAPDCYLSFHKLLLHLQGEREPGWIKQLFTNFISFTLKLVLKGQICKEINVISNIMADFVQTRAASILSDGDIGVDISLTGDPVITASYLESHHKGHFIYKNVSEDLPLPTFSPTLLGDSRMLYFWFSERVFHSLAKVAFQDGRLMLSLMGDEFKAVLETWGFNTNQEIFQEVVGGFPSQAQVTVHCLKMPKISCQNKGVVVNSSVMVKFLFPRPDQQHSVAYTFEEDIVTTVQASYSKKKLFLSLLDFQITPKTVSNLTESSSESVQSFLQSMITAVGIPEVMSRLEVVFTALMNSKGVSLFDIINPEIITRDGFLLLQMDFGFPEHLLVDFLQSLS
The assay is described as follows: In vitro CETP activity assay in human plasma. The format is biochemical. To be noted: CETP inhibition; Table 1 does not name the assay, it follows the human plasma assay; read-out: IC50 (nM), Inhibitory Activity of Compounds. The procedure:
The cDNA of human pro-apoAI (NCBI accession number: NM_000039) is cloned from human liver Quick-Clone™ cDNA (Clontech, CA) and inserted to a pET28a vector (Novagen, Germany) for bacterial expression. Expressed protein as a fusion protein with 6×His-tag at N-terminus in BL-21 Gold (DE3) (Strategene, CA) is purified using HiTrap Chelating (GE Healthcare, CT).
Pro-apoAI containing microemulsion as a donor particle is prepared following previous reports (J. Biol. Chem., 280:14918-22). Glyceryl trioleate (62.5 ng, Sigma, Mo.), 3-sn-phosphatidylcholine (583 ng, Wako Pure Chemical Industries, Japan), and cholesteryl BODIPY® FL C12 (250 ng, Invitrogen, CA) are dissolved in 1 mL of chloroform. The solution is evaporated, then residual solvent is removed in vacuum for more than 1 hr. The dried lipid mixture is dissolved in 500 μL of the assay buffer (50 mM Tris-HCl (pH7.4) containing 150 mM NaCl and 2 mM EDTA) and sonicated at 50° C. with a microtip (MICROSON™ ULTRASONIC CELL DISRUPTOR, Misonix, Farmingdale, N.Y.) at output power 006 for 2 min. After sonication, the solution is cooled to 40° C., added to 100 μg of human pro-apoAI, and sonicated at output power 004 for 5 min at 40° C. The solution, BODIPY-CE microemulsion as a donor molecule is stored at 4° C. after filtration through a 0.45 μm PVDF filter.
Human EDTA plasma samples from healthy men are purchased from New Drug Development Research Center, Inc. Donor solution is prepared by a dilution of donor microemulsion with assay buffer. Human plasma (50 μL), assay buffer (35 μL) and test compound dissolved in dimethylsulfoxide (1 μL) are added to each well of 96 well half area black flat bottom plate. The reaction is started by the addition of donor solution (14 μL) into each well. Fluorescence intensities are measured every 30 min at 37° C. with excitation wave length of 485 nm and emission wavelength of 535 nm. The CETP activity (FI/min) is defined as the changes of fluorescence intensity from 30 to 90 min.

On to `CC[C@@H]1C[C@H](N(Cc2cc(C(F)(F)F)cc(C(F)(F)F)c2)c2ncc(-c3cnn(C)c3)cn2)C[C@H](CC)N1C(=O)[C@H]1CC[C@H](CC(=O)O)CC1` [Example 1-2], for which the IC50 came out at 142 nM. The result for `CC[C@@H]1C[C@H](N(Cc2cc(C(F)(F)F)cc(C(F)(F)F)c2)c2ncc(-c3cnn(C)c3)cn2)C[C@H](CC)N1C(=O)OCCCCC(=O)O` [Example 1-5] reads 135 nM; that for `CC[C@@H]1C[C@H](N(Cc2cc(C(F)(F)F)cc(C(F)(F)F)c2)c2ncc(-c3cnn(C)c3)cn2)C[C@H](CC)N1C(=O)O[C@H]1CC[C@H](C(=O)O)CC1` [Example 1-8], 69 nM; that for `CC[C@@H]1C[C@H](N(Cc2cc(C(F)(F)F)cc(C(F)(F)F)c2)c2ncc(-c3cnn(C)c3)cn2)C[C@H](CC)N1C(=O)OCC(C)(C)CCC(=O)O` [Example 1-11], 63 nM. Regarding `CC[C@@H]1C[C@H](N(Cc2cc(C(F)(F)F)cc(C(F)(F)F)c2)c2ncc(-c3cnn(C)c3)cn2)C[C@H](CC)N1C(=O)O[C@H]1C[C@H](C(=O)O)C1` [Example 1-17], the IC50 stood at 86 nM. Consider `C[C@@H]1C[C@H](N(Cc2cc(C(F)(F)F)cc(C(F)(F)F)c2)c2ncc(-c3cnn(C)c3)cn2)C[C@H](C)N1C(=O)O[C@H]1CC[C@H](C(=O)O)CC1` [Example 1-19], for which the concentration for half-maximal inhibition (IC50) amounted to 98 nM. For `CC[C@@H]1C[C@H](N(Cc2cc(Cl)cc(Cl)c2)c2ncc(-c3cnn(C)c3)cn2)C[C@H](CC)N1C(=O)O[C@H]1CC[C@H](C(=O)O)CC1` [Example 1-20], the IC50 was found to be 91 nM. Turning to `CC[C@@H]1C[C@H](N(Cc2cc(F)cc(C(F)(F)F)c2)c2ncc(-c3cnn(C)c3)cn2)C[C@H](CC)N1C(=O)O[C@H]1CC[C@H](C(=O)O)CC1` [Example 1-22], the IC50 came out at 99 nM. Turning to `CC[C@@H]1C[C@H](N(Cc2cc(C(F)(F)F)cc(C(F)(F)F)c2)c2ncc(-c3cnn(C)c3)cn2)C[C@H](CC)N1C(=O)O[C@H]1C[C@H](C(C)(C)C(=O)O)C1` [Example 1-27], the 50% inhibitory concentration (IC50) was 152 nM. For the molecule `CC[C@@H]1C[C@H](N(Cc2cc(C(F)(F)F)cc(C(F)(F)F)c2)c2ncc(-c3cnn(C)c3)cn2)C[C@H](CC)N1C(=O)OCCCCC(N)=O` [Example 4, cis-4-{[3,5-bis(trifluoromethyl)benzyl]-[5-(1-methyl-1H-pyrazol-4-yl)-pyrimidin-2-yl]-amino}-2,6-diethyl-piperidine-1-carboxylic acid 4-carbamoyl-butyl ester], the 50% inhibitory concentration (IC50) is 68 nM.
